Measurements taken from patent US9416151B2, “Use of glycyrrhetinic acid, glycyrrhizic acid and related compounds for prevention and/or treatment of pulmonary fibrosis” (priority 2010, dated 2016).
“Also recorded” adds a separate entry of the source.

Legend:
[1] = system: inflammatory mediators (IMs), including IL1a, TNFa, PF4 and VCAM-1; assay: Inflammatory mediators in lung homogenates by ELISA, acute phase of IR-induced pneumonitis; format: in vivo, C57BL/6 fibrosis-prone mice; settings: 2.5 days after thoracic IR 15 Gy; treatment from 6 h after IR; vs vehicle, p<0.05
Description: (§1) Briefly, C57BL/6 fibrosis-prone mice received a single-dose of thoracic IR at 15 Gy with a dose rate of 1.9 Gy/min. Six hours after IR exposure, the mice were divided into the following treatment groups: 1) normal (received 0 Gy; no treatment); 2) vehicle-treated; 3) GA-treated (30-40 mg/kg/q.o.d) (i.e. every other day) (the GA dosage used herein was derived from the effective dosage for humans (3-4 mg/kg), which is typically 6-10 times lower than that of mice); 4) dexamethasone-treated (Positive Control 1) (Dex, 3 mg/kg, i.m. or p.o. qod); 5) amifostine-treated (Positive Control 2) (Ami, 200 mg/kg/ i.v, 0.5 hr prior to irradiation); and 6) celebrex-treated (Positive Control 3) (30 mg/kg, po, qod).
The mice were sacrificed 2.5 days after IR exposure, and fresh lung tissue homogenates were prepared using lysis buffer mixed with protenase inhibitor cocktails. After protein concentration was adjusted to 1 mg/ml, the fresh lung homogenates were added to ELISA plates at a concentration of 100 μl/well. The levels of inflammatory mediators were measured by ELISA.

[2] = system: mice with IR-induced pneumonitis; assay: Lung morphology, plasma exudation and inflammatory cell infiltration, acute phase of IR-induced pneumonitis; format: in vivo, C57BL/6 fibrosis-prone mice; settings: 2.5 days after thoracic IR 15 Gy
Description: as §1
Briefly, C57BL/6 fibrosis-prone mice received a single-dose of thoracic IR at 15 Gy with a dose rate of 1.9 Gy/min and were treated as described in Example 2. The mice were sacrificed 2.5 days after IR exposure, and lung tissues were harvested and analyzed for morphological changes.

[3] = system: mice with IR-induced pulmonary fibrosis; assay: Lung density by cone beam CT scan (CBCT); format: in vivo; settings: for lung density (abnormal increase): 7.5 months after IR 15 Gy, P<0.05
Description: To assess effects of GA on lung density, cone beam CT scan (CBCT) of mouse lungs was performed. CBCT provides a complete 3D 650×650×428 scan (i.e. 428 slices) of the lungs with isotropic resolution at 270 μm (central slice shown in FIG. 11) in 30 seconds. The scanner achieves a CT density sensitivity of ˜[…], and thus, changes in lung density can be discerned. The CBCT imaging data were further analyzed using MATLAB software. The lungs were automatically segmented (FIG. 12A) and a 3D image was generated for each mouse lung (FIG. 12B). To reduce the effect of cardiac motion on the mean value of lung density, boundaries of the lungs were not used for analysis. A histogram of voxel intensity (pulmonary tissue density) of each mouse was created (FIG. 13).

[4] = Toxicity of long-term use: activity, fur morphology, body weight; format: in vivo
[5] = system: ACTH (adrenocorticotropic hormone); growth hormone (GH); settings: in vivo
Description: The chemical structure of GA is similar to that of cortisol. Thus, this Example investigates whether the long-term use of GA would affect the production of cortisol and cause side effects. The plasma levels of ACTH (adrenocorticotropic hormone), a […], were measured using ELISA at Weeks 6, 7, and 10 after GA-treatments (40 mg/kg, god, p.o).
In addition, plasma levels of growth hormone (GH) were measured using ELISA at Weeks 6, 7, and 10 after GA treatments.

pulmonary fibrosis = assay: Inventors' observation on dexamethasone in pulmonary fibrosis; format: in vivo; settings: compared to non-treated controls
SP-D and IL1a = assay: Plasma levels of SP-D and IL1a, acute phase of IR-induced pneumonitis; format: in vivo, C57BL/6 fibrosis-prone mice; settings: 2.5 days after thoracic IR; P<0.05
Description: as §1
IR damages lung epithelium and endothelium cells, and causes dysfunction of tight junction, increased cellular permeability, and the loss of integrity of the alveolar-capillary barrier. As a result, SP-D and IL1a abnormally enter into the blood from inflamed pulmonary tissue, leading to elevated plasma levels of SP-D and IL1a.
In this Example, C57BL/6 fibrosis-prone mice received a single-dose of thoracic IR at 15 Gy with a dose rate of 1.9 Gy/min and were treated as described in Example 2. The mice were sacrificed 2.5 days after IR exposure, and plasma levels of SP-D and IL1a were measured.

[6] = system: mice with IR-induced pneumonitis; assay: Sub-acute phase of IR-induced pneumonitis: lung tissue and BALF assays; format: in vivo, C57BL/6 fibrosis-prone mice
Description: as §1
Briefly, C57BL/6 fibrosis-prone mice received a thoracic IR and were treated as described in Example 2. The mice were sacrificed 17 days after IR exposure, and lung tissues were harvested. Bronchoalveolar lavage fluid (BALF) assays were performed.

[7] = system: IL1a, TNFa, lymphotactin and p-selectin; assay: Inflammatory mediators, sub-acute phase, GA administered 24 hours after IR exposure; format: in vivo, mice; settings: GA given 24 hours after thoracic IR at 5, 10 and 15 Gy
Description: The administration of GA 24 hours after IR exposure can effectively block the surge in inflammatory responses.

[8] = system: mice with IR-induced pulmonary fibrosis; assay: Respiratory rate in IR-induced pulmonary fibrosis (ventilator with pressure plethysmograph); format: in vivo
Description: Mice exposed to thoracic IR develops pulmonary fibrosis 6 months after IR exposure at 18 Gy, 8 months after IR exposure at 15 Gy, and 10 months after IR exposure at 12.5 Gy. To access the treatment effects of GA on lung fibrosis and lung function, the respiratory rate, lung density, and lung compliance of the mice were determined.
To assess improvement on respiratory function, mice exposed to thoracic IR at 15 Gy were treated with GA (30-40 mg/kg) q.o.d. or twice/week for 3 months. Mouse respiratory rate was measured using a Harvard rodent ventilator connected to a pressure plethysmograph.

[9] = system: mice with IR-induced pulmonary fibrosis; assay: Lung compliance (plethysmograph pressure-volume measurements); format: in vivo; settings: 6.5 months after IR 15 Gy; P<0.05
Description: To assess the effects of GA on lung compliance, mice were anesthetized and their trachea were surgically exposed and incised. An 18-gauge, 1 cm stainless steel tube was inserted into the trachea and secured with surgical sutures. The respiratory rate and tidal volume of the mice were measured by a Harvard rodent ventilator. The average respiratory rate was 150 breaths per minute and the tidal volume was adjusted according to the weight (0.01 ml per gram body weight). The mice were then placed in a plethysmograph for pressure-volume measurements.

[10] = system: mice with IR-induced pulmonary fibrosis; assay: Lung histology (H&E, trichrome), hydroxyproline and TGFβ in IR-induced fibrosis; format: in vivo
Description: Briefly, mice treated with GA (40 mg/kg/q.o.d.) for 3 months were sacrificed 7 months after IR exposure at 15 Gy, and lung tissue specimens were stained using hematoxylin and eosin (H&E) stain.
To assess whether GA reduces abnormal collagen deposition in lungs, lung tissue specimen was stained with collagen-binding trichrome blue dye.
The reduction of collagen deposition was further analyzed by measuring the levels of hydroxyproline, a key component of collagen.

IR-induced pneumonitis = assay: GLA tablets in a lung cancer patient receiving 2nd IR treatment; format: in vivo; settings: one patient
Description: In collaboration with radiation oncologists at the First Affiliated Hospital of Fujian Medical School in China, GLA tablets (produced by Minophagen Co. in Japan and available in pharmacies in China) were administered to a patient who received their 2nd IR treatment for lung cancer. […] To control the progression of pneumonitis, they received dexamethasone treatment. Due to tumor re-growth 9 months after their 1st IR treatment, they received a 2nd IR treatment with warnings that IR may worsen pneumonitis.
In order to mitigate IR-induced lung injury, GLA was administered at a does of 150 mg per day (equivalent to GA about 85 mg per day) starting from the date of 2nd treatment for 3 months. The result was unexpectedly surprising.

NCCCNCCSP(=O)(O)O [amifostine, reference compound]
levels of inflammatory mediators (IL1a, TNFa, PF4, VCAM-1) in lung homogenates [1]: extent of inhibition by GA was comparable
plasma exudation and inflammatory cell infiltration into the interstitial space [2]: produced similar treatment effects

Cc1ccc(-c2cc(C(F)(F)F)nn2-c2ccc(S(N)(=O)=O)cc2)cc1 [celebrex, reference compound]
levels of inflammatory mediators (IL1a, TNFa, PF4, VCAM-1) in lung homogenates [1]: extent of inhibition by GA was comparable
plasma exudation and inflammatory cell infiltration into the interstitial space [2]: produced similar treatment effects
lung density (abnormal increase) [3]: reduction in lung density by GA is more potent that of celebrex
body weight ([4]; 7.5 months post IR 15 Gy, vehicle-treated mice lost 6-7 g): less severe loss of BW

C[C@@H]1C[C@H]2[C@@H]3CCC4=CC(=O)C=C[C@]4(C)[C@@]3(F)[C@@H](O)C[C@]2(C)[C@@]1(O)C(=O)CO [dexamethasone, reference compound]
plasma growth hormone (GH) level [5]: increased
reduction in plasma ACTH levels [5]: 10-50 fold
course of pulmonary fibrosis and survival (pulmonary fibrosis): may result in worsening of pulmonary fibrosis, leading to lung failure or even earlier death

glycyrrhetinic acid [GA]
levels of inflammatory mediators (IL1a, TNFa, PF4, VCAM-1) in lung homogenates [1]: effectively reduced levels of IMs; also recorded: inhibition effects
plasma exudation and inflammatory cell infiltration into the interstitial space [2]: potently suppressed; also recorded: reduces inflammatory cell infiltration and plasma exudation
plasma levels of IL1a (SP-D and IL1a): effectively reduced; also recorded: reduces plasma levels of SP-D and ILa
plasma levels of SP-D (SP-D and IL1a): effectively reduced; also recorded: reduces plasma levels of SP-D
infiltration of neutrophils into the interstitial fluid (lung tissue) ([6]; 17 days after IR 15 Gy): suppression of infiltration of neutrophils; also recorded: mitigates the sub-acute phase of IR-induced pneumonitis
myeloperoxidase (MPO) activity in BALF ([6]; 17 days after IR 15 Gy, P<0.05): reduces
neutrophils infiltrated into bronchoalveolar lavage fluid ([6]; 17 days after IR 15 Gy, P<0.05): reduced; also recorded: reduces the number of neutrophils
levels of lymphotactin and p-selectin ([6]; 17 days after IR exposure, P<0.05): reduced; also recorded: reduces the levels of inflammatory mediators
levels of IL1a, TNFa, lymphotactin and p-selectin [7]: potently reduced; also recorded: inhibits inflammatory responses
respiratory rate ([8]; 5 months after IR 18 Gy): reduction of respiratory rate
respiratory rate ([8]; 7 months after IR 15 Gy, GA 30-40 mg/kg q.o.d. or twice/week for 3 months, P<0.05): effectively reduced; also recorded: reduction of respiratory rate
Mean Density (lung density) ([3]; 1 year post IR exposure at 18 Gy, normal control −454, IR without treatment −364): −458 HU
lung density (abnormal increase) [3]: significantly reduced; also recorded: reduces lung density
lung compliance [9]: potently, and mostly effectively, enhanced
lung morphology (H&E stain) ([10]; GA 40 mg/kg/q.o.d. for 3 months, 7 months after IR 15 Gy): near-normal morphology; also recorded: mitigates IR-induced pulmonary fibrosis
collagen deposition (trichrome blue dye) ([10]; IR-exposed mice): reduces collagen deposition; also recorded: mitigates IR-induced lung fibrosis
level of TGFβ ([10]; IR-exposed mice): reduced
hydroxyproline levels in the lungs ([10]; vs IR + vehicle control, P<0.05): reduced; also recorded: reduces collagen deposition
death during treatment ([4]; long-term GA treatment): No mouse died
side effects (activity, fur morphology, body weight) ([4]; long-term use): little side effects
plasma growth hormone (GH) level [5]: increased
plasma ACTH levels ([5]; 40 mg/kg): rapidly returned to normal

glycyrrhizic acid [GLA]
symptoms of pneumonitis or fibrosis (IR-induced pneumonitis; 150 mg per day for 3 months from 2nd IR treatment): did not exhibit any symptom of pneumonitis or fibrosis; also recorded: mitigates pneumonitis
lung density (CT) (IR-induced pneumonitis; CT of 1st vs 2nd IR treatment): significantly reduced
